Counter-ions that a name gives are not always drawn.
What was measured:
[1] = biological target: T1, His-tagged human Aurora A (Homo sapiens, UniProt O14965); experiment: Aurora A inhibitory activity (IMAP fluorescence polarization); type: biochemical; conditions: 20 μM ATP, 30° C., 120 minutes
T1 construct: His (N); made in house; host or cells: Escherichia coli BL21-CodonPlus(DE3)-RIL
T1 sequence (O14965 1-403): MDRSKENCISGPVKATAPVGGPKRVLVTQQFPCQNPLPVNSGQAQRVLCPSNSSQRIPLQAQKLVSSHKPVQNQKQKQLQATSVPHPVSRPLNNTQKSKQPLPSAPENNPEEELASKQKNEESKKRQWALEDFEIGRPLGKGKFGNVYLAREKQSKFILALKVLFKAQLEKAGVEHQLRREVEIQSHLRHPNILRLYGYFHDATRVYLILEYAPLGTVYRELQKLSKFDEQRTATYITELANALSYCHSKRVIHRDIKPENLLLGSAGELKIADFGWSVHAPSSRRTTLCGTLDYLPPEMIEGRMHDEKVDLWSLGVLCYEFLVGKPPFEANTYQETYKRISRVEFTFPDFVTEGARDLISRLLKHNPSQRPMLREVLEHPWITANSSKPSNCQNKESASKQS
Excerpt: cDNA of N-terminal His-tagged human Aurora A was integrated into an expression vector, which was then highly expressed in Escherichia coli BL21-CodonPlus(DE3)-RIL cells. The Escherichia coli was harvested and lysed, and then the His-tagged human Aurora A protein was applied onto a nickel chelate column and eluted from the column with imidazole. The active fractions were desalted with a desalting column to give a purified enzyme.
For measurement of the activity of Aurora A, the substrate used was a synthetic peptide (5-FAM (5-carboxyfluorescein)-γ-aminobutyric acid-Ala-Leu-Arg-Arg-Ala-Ser-Leu-Gly-NH2) (SEQ.ID.NO.: 1), which was purchased from Toray Research Center, Inc.
For the phosphorylation reaction, the method by Upstate, Inc. [Kinase Profiler™ Assay Protocols] was referred to, and phosphorylation of the substrate was detected using IMAP® technology (Molecular Devices, Co. Ltd.) (Gaudet E W. et. al, J. Biomol. Screen, 8, 164-175 (2003)). Concretely, the phosphorylation reaction and the detection were carried out as follows:
The phosphorylation reaction was conducted using 384 well plate, and the reaction volume was 10 μl/well. The reaction buffer is comprised of 50 mM Tris-chloride buffer (pH 7.4), 15 mM magnesium acetate, and 0.2 mM ethylenediamine-N,N,N′,N′-tetraacetic acid (EDTA). Thereto, the purified Aurora A protein, 100 nM of the peptide substrate, and 20 μM of adenosine 5′-triphosphate (ATP) were added, and then the reaction was carried out at 30° C. for 120 minutes.
Thereafter, in order to terminate and detect the reaction, 30 μl of the IMAP (registered trademark) binding reagent (IMAP Progressive Binding Reagent, R7284) that had been diluted (1:400) in the 1×IMAP binding buffer A (IMAP Progressive Binding Buffer A, 5× stock, R7282) was added to each well. The solution stood still for 60 minutes in the dark, and then fluorescence polarization was measured using a high-end microplate reader (excitation wavelength: 485 nm; emission wavelength: 520 nm).
(§1) The compound to be tested was added to the reaction system such that a dilution series of the compound in dimethylsulfoxide (DMSO) was prepared, and then 0.5 μL of this solution was added for the testing to each well. Each control well was provided by adding 0.5 μL of DMSO to the well in place of the DMSO solution containing the compound to be tested.

[2] = biological target: T2, GST-tagged human Aurora B(AurB)/His-tagged human INCENP complex proteins (Homo sapiens, UniProt Q96GD4); experiment: Aurora B inhibitory activity (Method A, IMAP kit); type: biochemical; conditions: 40 μM ATP, 25° C., 45 minutes
T2 construct: GST; purchased Carna Biosciences, Inc
Protocol: An assay development kit for IMAP (registered trademark) (Aurora B), purchased from Carna Biosciences, Inc., was used for phosphorylation reaction, and the phosphorylation of a substrate was detected using the IMAP technology. The assay development kit used is comprised of an assay buffer, GST-tagged human Aurora B(AurB)/His-tagged human INCENP complex proteins (amino acid sequence: 803-916, AAU04398.1), and an ATP/substrate solution. Using the same, the phosphorylation reaction was conducted in accordance with a partially revised protocol attached to the kit, and then the phosphorylation of the substrate was detected using the IMAP technology.
For the phosphorylation reaction, 384 well plate was used, and the reaction volume was 10 μl/well. The composition of the reaction buffer (assay buffer) is comprised of 20 mM of HEPES buffer (pH 7.4), 0.01% Tween-20, and 2 mM of dithiothreitol (DTT). Thereto, AurB/INCENP complex protein, 100 nM of the substrate, and 40 μM of ATP, and 1 mM of magnesium salt were added, and then the reaction was conducted at 25° C. for 45 minutes. Thereafter, in order to terminate and detect the reaction, 30 μl of the IMAP (registered trademark) binding reagent (IMAP Progressive Binding Reagent, R7284) that had been diluted (1:400) in the 1×IMAP binding buffer A (IMAP Progressive Binding Buffer A, 5× stock, R7282) was added to each well. The solution stood still for 60 minutes in the dark, and then fluorescence polarization was measured using a high-end microplate reader (excitation wavelength: 485 nm; emission wavelength: 520 nm).
as §1, with “DMSO” for “dimethylsulfoxide (DMSO)”

T2 sequence (Q96GD4 whole entry): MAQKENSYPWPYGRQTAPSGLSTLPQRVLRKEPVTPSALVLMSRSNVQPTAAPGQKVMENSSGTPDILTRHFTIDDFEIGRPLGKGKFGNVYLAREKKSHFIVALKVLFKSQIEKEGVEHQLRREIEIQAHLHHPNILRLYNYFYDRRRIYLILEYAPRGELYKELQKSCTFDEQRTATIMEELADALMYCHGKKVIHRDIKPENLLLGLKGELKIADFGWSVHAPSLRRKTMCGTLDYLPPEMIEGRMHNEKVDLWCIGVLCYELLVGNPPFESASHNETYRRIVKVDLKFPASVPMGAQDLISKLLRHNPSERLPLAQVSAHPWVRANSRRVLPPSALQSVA
T2 sequence (Q9NQS7 803-916 partner limits assumed): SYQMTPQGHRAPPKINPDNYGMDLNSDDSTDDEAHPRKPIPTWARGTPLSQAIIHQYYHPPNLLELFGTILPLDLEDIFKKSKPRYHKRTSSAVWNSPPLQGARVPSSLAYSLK

Row | Structure (SMILES) | IC50 [1] [nM] | IC50 [2] [nM]
1 | Cc1cc(Nc2cc[nH]n2)nc(CC2CCN(C(=O)c3cccc(Cl)c3F)CC2)n1 [Example 3, 2-((1-(3-chloro-2-fluorobenzoyl)piperidin-4-yl)methyl)-6-methyl-N-1H-pyrazol-3-ylpyrimidin-4-amine trifluoroacetate] | 1.6 | 400
2 | CCOC(=O)C1(Cc2cccc(Nc3cc[nH]n3)n2)CCN(C(=O)c2cccc(Cl)c2F)CC1 [Example 4, ethyl 1-(3-chloro-2-fluorobenzoyl)-4-((6-(1H-pyrazol-3-ylamino)pyridin-2-yl)methyl)piperidine-4-carboxylate] | 1.14 | > 1000
3 | CCOC(=O)C1(Cc2cccc(Nc3cc[nH]n3)n2)CCN(C(=O)c2cccc(C(F)(F)F)c2F)CC1 [Example 5, ethyl 1-(2-fluoro-3-(trifluoromethyl)benzoyl)-4-((6-(1H-pyrazol-3-ylamino)pyridin-2-yl)methyl)piperidine-4-carboxylate] | 0.63 | 555
4 | NC(=O)C1(Cc2cccc(Nc3cc[nH]n3)n2)CCN(C(=O)c2cccc(Cl)c2F)CC1 [Example 6, 1-(3-chloro-2-fluorobenzoyl)-4-((6-(1H-pyrazol-3-ylamino)pyridin-2-yl)methyl)piperidine-4-carboxamide] | 1.57 | > 1000
5 | NC(=O)C1(Cc2cccc(Nc3cc[nH]n3)n2)CCN(C(=O)c2cccc(C(F)(F)F)c2F)CC1 [Example 7, 1-(2-fluoro-3-(trifluoromethyl)benzoyl)-4-((6-(1H-pyrazol-3-ylamino)pyridin-2-yl)methyl)piperidine-4-carboxamide] | 0.61 | 135
6 | CONC(=O)C1(Cc2cccc(Nc3cc[nH]n3)n2)CCN(C(=O)c2cccc(C(F)(F)F)c2F)CC1 [Example 8, 1-(2-fluoro-3-(trifluoromethyl)benzoyl)-N-methoxy-4-((6-(1H-pyrazol-3-ylamino)pyridin-2-yl)methyl)piperidine-4-carboxamide] | 0.79 | 555
7 | O=C(c1cccc(F)c1F)N1CCC(Cc2cccc(Nc3cc[nH]n3)n2)(c2n[nH]c(=O)o2)CC1 [Example 11, 5-(1-(2,3-difluorobenzoyl)-4-((6-(1H-pyrazol-3-ylamino)pyridin-2-yl)methyl)piperidin-4-yl)-1,3,4-oxadiazol-2(3H)-one trifluoroacetate] | 0.26 | 236
8 | O=c1[nH]nc(C2(Cc3cccc(Nc4cc[nH]n4)n3)CCN(S(=O)(=O)c3cccc(Cl)c3Cl)CC2)o1 [Example 13, 5-(1((2,3-dichlorophenyl)sulfonyl)-4((6-(1H-pyrazol-3-ylamino)pyridin-2-yl)methyl)piperidin-4-yl)-1,3,4-oxadiazol-2(3H)-one trifluoroacetate] | 2.55 | 609
9 | Cc1cc(Nc2cccc(CC3(c4n[nH]c(=O)o4)CCN(C(=O)c4cccc(Cl)c4F)CC3)n2)n[nH]1 [Example 15, 5-(1-(3-chloro-2-fluorobenzoyl)-4-((6-((5-methyl-1H-pyrazol-3-yl)amino)pyridin-2-yl)methyl)piperidin-4-yl)-1,3,4-oxadiazol-2(3H)-one] | 0.25 | 77.5
10 | Cc1cc(Nc2cccc(CC3(c4n[nH]c(=O)o4)CCN(C(=O)c4cccc(F)c4F)CC3)n2)n[nH]1 [Example 16, 5-(1-(2,3-difluorobenzoyl)-4-((6-((5-methyl-1H-pyrazol-3-yl)amino)pyridin-2-yl)methyl)piperidin-4-yl)-1,3,4-oxadiazol-2(3H)-one] | 0.41 | 157
11 | Cc1cc(Nc2cc[nH]n2)nc(CC2(C(N)=O)CCN(C(=O)c3cccc(Cl)c3F)CC2)n1 [Example 18, 1-(3-chloro-2-fluorobenzoyl)-4-((4-methyl-6-(1H-pyrazol-3-ylamino)pyrimidin-2-yl)methyl)piperidine-4-carboxamide trifluoroacetate] | 1.23 | > 1000
